Experimental data from PMC12621043, “Un-LOK-ing a New Approach for Conformational Selective Targeting of STK10 (LOK)” (ACS Medicinal Chemistry Letters, 2025).

How the values were obtained:
MARK3A = molecular target: T1, MARK3A (Homo sapiens, UniProt P27448); assay: DSF Tm panel; assay type: binding; details: 10 μM compound
T1 construct: purchased in-house DSF kinase panel (SGC-style construct names; the trailing letter is the construct ID)

GPRK5A = molecular target: T2, GPRK5A (Homo sapiens, UniProt P34947); assay: DSF Tm panel; assay type: binding; details: 10 μM compound
T2 construct: purchased in-house DSF kinase panel (SGC-style construct names; the trailing letter is the construct ID)
T2 sequence (P34947 186-514): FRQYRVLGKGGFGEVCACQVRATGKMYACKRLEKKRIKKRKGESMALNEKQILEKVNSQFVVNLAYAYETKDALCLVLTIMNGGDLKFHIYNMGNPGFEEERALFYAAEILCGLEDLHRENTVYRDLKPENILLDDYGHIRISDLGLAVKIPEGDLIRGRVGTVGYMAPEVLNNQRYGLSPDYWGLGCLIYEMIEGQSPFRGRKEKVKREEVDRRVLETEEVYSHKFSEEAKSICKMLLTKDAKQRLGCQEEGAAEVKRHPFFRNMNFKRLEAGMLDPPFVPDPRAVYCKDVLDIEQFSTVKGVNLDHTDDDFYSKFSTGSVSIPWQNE

EPHB3A = molecular target: T3, EPHB3A (Homo sapiens, UniProt P54753); assay: DSF Tm panel; assay type: binding; details: 10 μM compound
T3 construct: purchased in-house DSF kinase panel (SGC-style construct names; the trailing letter is the construct ID)
T3 sequence (P54753 34-998): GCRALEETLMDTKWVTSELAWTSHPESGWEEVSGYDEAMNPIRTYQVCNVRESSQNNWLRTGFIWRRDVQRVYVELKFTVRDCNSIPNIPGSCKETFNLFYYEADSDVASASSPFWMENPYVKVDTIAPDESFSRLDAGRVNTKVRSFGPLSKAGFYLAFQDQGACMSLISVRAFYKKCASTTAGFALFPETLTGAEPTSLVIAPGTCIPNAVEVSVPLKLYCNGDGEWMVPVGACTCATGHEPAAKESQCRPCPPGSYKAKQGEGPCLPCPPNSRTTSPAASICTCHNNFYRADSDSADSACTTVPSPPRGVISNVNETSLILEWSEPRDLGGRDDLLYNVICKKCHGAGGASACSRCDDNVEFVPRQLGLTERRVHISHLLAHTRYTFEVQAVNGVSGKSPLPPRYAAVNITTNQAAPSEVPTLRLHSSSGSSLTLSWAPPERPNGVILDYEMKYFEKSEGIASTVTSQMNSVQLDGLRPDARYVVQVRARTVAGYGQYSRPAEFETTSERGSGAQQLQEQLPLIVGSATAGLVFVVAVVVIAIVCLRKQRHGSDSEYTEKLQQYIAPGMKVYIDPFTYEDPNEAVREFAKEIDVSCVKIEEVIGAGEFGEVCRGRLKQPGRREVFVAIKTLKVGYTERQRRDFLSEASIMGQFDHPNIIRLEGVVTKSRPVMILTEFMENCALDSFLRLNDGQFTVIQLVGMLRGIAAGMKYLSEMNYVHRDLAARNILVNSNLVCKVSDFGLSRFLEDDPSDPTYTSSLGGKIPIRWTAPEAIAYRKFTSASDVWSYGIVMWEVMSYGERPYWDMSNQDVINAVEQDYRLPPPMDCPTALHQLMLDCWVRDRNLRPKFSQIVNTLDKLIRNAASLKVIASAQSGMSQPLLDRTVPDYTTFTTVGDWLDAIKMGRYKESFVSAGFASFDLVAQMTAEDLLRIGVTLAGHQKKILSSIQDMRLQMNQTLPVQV

RPS6KA1A = assay: DSF Tm panel; assay type: binding; details: 10 μM compound
MAPK15A (MAPK15HSD) = molecular target: T4, MAPK15A (MAPK15HSD) (Homo sapiens, UniProt Q8TD08); assay: DSF Tm panel; assay type: binding; details: 10 μM compound
T4 sequence (Q8TD08 13-304 limits assumed): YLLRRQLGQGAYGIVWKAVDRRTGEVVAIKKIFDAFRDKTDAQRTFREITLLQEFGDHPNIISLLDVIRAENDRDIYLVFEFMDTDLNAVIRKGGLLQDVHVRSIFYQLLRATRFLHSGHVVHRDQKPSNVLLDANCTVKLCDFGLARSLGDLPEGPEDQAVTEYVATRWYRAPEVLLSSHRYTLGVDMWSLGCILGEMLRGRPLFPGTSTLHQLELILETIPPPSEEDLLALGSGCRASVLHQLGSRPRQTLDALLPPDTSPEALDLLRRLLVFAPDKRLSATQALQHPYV

SLK = SLK (Homo sapiens, UniProt Q9H2G2); assay: NanoBRET target engagement assay; assay type: cell-based; design: has a greater impact on the full-length protein than on the kinase domains; host or cells: HEK293T (ATCC CRL-3216); details: HEK293T cells
SLK, sequence (Q9H2G2 whole entry, the tested form may be a part): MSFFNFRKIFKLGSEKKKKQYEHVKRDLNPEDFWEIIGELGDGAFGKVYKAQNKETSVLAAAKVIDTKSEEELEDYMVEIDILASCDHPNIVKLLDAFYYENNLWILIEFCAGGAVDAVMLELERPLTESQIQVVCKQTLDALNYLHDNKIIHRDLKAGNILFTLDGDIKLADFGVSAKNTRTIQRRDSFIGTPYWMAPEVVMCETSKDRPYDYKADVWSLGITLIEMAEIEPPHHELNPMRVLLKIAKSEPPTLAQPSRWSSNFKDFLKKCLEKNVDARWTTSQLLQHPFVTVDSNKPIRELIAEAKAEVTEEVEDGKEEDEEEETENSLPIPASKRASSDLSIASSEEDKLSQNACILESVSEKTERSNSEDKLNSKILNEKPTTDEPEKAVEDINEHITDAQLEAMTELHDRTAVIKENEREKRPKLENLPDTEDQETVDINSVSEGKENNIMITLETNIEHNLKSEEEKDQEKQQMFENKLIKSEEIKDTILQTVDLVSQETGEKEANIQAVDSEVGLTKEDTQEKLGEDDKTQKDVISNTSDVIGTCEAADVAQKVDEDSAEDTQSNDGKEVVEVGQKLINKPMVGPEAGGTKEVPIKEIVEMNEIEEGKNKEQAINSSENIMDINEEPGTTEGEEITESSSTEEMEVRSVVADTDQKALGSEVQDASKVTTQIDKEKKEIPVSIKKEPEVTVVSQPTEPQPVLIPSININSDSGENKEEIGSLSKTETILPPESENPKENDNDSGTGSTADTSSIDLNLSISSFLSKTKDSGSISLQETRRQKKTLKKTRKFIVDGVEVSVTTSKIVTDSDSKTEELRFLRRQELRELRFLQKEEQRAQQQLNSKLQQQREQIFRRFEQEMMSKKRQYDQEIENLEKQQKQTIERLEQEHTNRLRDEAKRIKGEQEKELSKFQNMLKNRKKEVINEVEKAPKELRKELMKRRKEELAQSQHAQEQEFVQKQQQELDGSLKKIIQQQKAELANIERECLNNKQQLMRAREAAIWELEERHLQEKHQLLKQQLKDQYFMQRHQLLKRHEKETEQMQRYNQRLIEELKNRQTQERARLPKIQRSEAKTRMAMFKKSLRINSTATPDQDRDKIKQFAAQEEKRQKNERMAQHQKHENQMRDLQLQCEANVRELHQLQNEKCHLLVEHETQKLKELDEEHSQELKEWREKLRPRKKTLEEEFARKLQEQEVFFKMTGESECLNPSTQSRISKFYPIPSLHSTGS

MST3A = molecular target: T5, MST3A (Homo sapiens, UniProt Q9Y6E0); assay: DSF Tm panel; assay type: binding; details: 10 μM compound
T5 construct: purchased in-house DSF kinase panel (SGC-style construct names; the trailing letter is the construct ID)
T5 sequence (Q9Y6E0 whole entry): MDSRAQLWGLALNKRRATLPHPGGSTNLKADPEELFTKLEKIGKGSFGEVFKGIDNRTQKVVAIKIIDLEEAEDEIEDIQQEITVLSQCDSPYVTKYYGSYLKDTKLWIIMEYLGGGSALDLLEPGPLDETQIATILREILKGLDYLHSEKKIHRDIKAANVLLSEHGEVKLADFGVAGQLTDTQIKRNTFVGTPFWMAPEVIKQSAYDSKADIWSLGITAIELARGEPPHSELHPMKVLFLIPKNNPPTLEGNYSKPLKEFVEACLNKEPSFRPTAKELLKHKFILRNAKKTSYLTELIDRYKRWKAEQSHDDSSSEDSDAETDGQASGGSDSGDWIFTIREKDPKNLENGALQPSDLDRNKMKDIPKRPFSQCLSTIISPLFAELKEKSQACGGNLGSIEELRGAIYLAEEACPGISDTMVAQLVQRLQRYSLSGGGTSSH

PKMYT1A = molecular target: T6, PKMYT1A (Homo sapiens, UniProt Q99640); assay: DSF Tm panel; assay type: binding; details: 10 μM compound
T6 construct: purchased in-house DSF kinase panel (SGC-style construct names; the trailing letter is the construct ID)
T6 sequence (Q99640 75-362): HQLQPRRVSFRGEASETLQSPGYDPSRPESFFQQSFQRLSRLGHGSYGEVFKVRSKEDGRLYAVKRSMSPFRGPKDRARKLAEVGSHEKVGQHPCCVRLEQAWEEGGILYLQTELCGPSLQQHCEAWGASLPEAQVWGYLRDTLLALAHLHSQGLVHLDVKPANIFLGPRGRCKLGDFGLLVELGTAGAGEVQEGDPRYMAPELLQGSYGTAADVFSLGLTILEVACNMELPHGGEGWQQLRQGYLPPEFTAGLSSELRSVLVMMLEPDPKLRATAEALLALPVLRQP

CASKA = molecular target: T7, CASKA (Homo sapiens, UniProt O14936); assay: DSF Tm panel; assay type: binding; details: 10 μM compound
T7 construct: purchased in-house DSF kinase panel (SGC-style construct names; the trailing letter is the construct ID)
T7 sequence (O14936 12-276): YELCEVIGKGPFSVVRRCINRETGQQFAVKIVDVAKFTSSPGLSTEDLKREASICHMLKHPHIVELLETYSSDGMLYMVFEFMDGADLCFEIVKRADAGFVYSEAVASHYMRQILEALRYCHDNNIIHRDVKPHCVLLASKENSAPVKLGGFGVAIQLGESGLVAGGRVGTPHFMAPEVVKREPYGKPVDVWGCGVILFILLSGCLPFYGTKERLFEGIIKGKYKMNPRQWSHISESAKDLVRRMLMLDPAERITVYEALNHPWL

MAPK14A = molecular target: T8, MAPK14A (Homo sapiens, UniProt Q16539); assay: DSF Tm panel; assay type: binding; details: 10 μM compound
T8 construct: purchased in-house DSF kinase panel (SGC-style construct names; the trailing letter is the construct ID)
T8 sequence (Q16539 whole entry): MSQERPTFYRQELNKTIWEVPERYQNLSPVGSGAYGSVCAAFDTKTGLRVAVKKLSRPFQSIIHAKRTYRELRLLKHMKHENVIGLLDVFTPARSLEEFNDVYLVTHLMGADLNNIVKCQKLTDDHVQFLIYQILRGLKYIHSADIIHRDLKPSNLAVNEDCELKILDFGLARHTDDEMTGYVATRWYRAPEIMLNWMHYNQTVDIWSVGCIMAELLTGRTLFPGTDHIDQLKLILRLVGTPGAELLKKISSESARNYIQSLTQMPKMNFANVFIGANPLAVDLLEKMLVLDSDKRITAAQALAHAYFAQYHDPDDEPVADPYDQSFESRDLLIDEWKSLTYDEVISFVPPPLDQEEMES

BMP2KA = molecular target: T9, BMP2KA (Homo sapiens, UniProt Q9NSY1); assay: DSF Tm panel; assay type: binding; details: 10 μM compound
T9 construct: purchased in-house DSF kinase panel (SGC-style construct names; the trailing letter is the construct ID)
T9 sequence (Q9NSY1 38-345): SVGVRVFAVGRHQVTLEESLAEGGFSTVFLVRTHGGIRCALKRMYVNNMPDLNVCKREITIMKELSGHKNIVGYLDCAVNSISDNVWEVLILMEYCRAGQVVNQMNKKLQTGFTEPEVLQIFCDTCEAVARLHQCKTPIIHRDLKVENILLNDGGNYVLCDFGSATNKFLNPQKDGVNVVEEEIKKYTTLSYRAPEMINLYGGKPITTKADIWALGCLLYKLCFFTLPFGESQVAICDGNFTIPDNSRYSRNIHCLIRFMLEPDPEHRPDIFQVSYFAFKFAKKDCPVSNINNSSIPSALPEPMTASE

VRK1A = molecular target: T10, VRK1A (Homo sapiens, UniProt Q99986); assay: DSF Tm panel; assay type: binding; details: 10 μM compound
T10 construct: purchased in-house DSF kinase panel (SGC-style construct names; the trailing letter is the construct ID)
T10 sequence (Q99986 1-396): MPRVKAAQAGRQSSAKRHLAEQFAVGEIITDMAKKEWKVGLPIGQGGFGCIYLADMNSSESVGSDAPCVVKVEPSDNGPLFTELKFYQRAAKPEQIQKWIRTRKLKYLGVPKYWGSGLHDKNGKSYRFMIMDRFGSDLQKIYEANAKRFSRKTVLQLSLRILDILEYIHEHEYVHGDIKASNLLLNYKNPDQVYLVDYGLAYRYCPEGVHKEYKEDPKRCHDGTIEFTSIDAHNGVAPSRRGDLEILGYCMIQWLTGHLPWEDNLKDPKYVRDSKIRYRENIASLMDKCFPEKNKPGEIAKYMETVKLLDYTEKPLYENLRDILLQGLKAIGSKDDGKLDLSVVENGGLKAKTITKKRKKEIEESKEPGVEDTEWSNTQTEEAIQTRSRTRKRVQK

FGFR2A = molecular target: T11, FGFR2A (Homo sapiens, UniProt P21802); assay: DSF Tm panel; assay type: binding; details: 10 μM compound
T11 construct: purchased in-house DSF kinase panel (SGC-style construct names; the trailing letter is the construct ID)
T11 sequence (P21802 458-770): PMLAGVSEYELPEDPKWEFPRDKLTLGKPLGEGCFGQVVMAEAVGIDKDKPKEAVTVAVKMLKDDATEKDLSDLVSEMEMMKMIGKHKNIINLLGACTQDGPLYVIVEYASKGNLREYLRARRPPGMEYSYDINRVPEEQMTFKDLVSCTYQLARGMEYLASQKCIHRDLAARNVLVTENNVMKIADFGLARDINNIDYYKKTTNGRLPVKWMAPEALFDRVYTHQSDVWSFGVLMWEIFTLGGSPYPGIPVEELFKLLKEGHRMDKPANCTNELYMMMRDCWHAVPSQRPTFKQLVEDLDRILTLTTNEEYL

T1 sequence (P27448 56-307): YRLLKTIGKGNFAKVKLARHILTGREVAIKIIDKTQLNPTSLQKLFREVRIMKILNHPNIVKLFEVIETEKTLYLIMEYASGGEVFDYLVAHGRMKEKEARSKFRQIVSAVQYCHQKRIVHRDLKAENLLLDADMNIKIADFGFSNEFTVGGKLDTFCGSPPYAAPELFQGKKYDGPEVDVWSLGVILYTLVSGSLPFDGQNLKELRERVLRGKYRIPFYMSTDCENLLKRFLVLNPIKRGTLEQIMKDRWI

Structure (SMILES)	ΔTm at 10 µM (MARK3A) [°C]	ΔTm at 10 µM (GPRK5A) [°C]	ΔTm at 10 µM (EPHB3A) [°C]	ΔTm RPS6KA1A (RPS6KA1A)	ΔTm at 10 µM (MAPK15A (MAPK15HSD)) [°C]	EC50 (SLK) [µM]	ΔTm at 10 µM (MST3A) [°C]	ΔTm at 10 µM (PKMYT1A) [°C]	ΔTm at 10 µM (CASKA) [°C]	ΔTm at 10 µM (MAPK14A) [°C]	ΔTm at 10 µM (BMP2KA) [°C]	ΔTm at 10 µM (VRK1A) [°C]	ΔTm at 10 µM (FGFR2A) [°C]
COc1ccccc1CNC(=O)Nc1ccc2cc1OCCOCCNc1ccn3ncc-2c3n1 [compound 29]	-0.1	0.4	0.4	0,5 °C	3.3	> 50	-7.7	-0.1	1.1	0.9	8.3	0	2.9
COc1cccc(CNC(=O)Nc2ccc3cc2OCCOCCNc2ccn4ncc-3c4n2)c1 [compound 30]	-0.3	0.5	0.3	0,6 °C	2.3	> 50	-5.1	0	0.9	0.9	9.8	0.3	3.1
COc1ccc(CNC(=O)Nc2ccc3cc2OCCOCCNc2ccn4ncc-3c4n2)cc1F [compound 32]	0.5	0.7	0.6	0,8 °C	2.5	> 50	-6.4	0.4	1.7	2.4	10.9	0.2	2.8
COc1cc(CNC(=O)Nc2ccc3cc2OCCOCCNc2ccn4ncc-3c4n2)ccc1F [compound 33]	0.3	2.2	0.8	0,5 °C	3.3	> 50	-5.3	0.2	0.9	1.4	10.2	0.3	3.7
C[C@H](NC(=O)Nc1ccc2cc1OCCOCCNc1ccn3ncc-2c3n1)c1ccccc1 [compound 34]	0	0.2	0.5	0,4 °C	2.1	> 50	-7.8	-0.1	1	1.3	9.1	0	2.8
CN1CCN(C(=O)Nc2ccc3cc2OCCOCCNc2ccn4ncc-3c4n2)CC1 [compound 35]	0.5	0.8	0.6	0,7 °C	2	> 50	0.4	0.8	0	-0.3	11.8	-0.1	1.5
